Measured values: patent US7378265B2 (priority 1998, dated 2008)

Tested on: recombinant retroviruses expressing the LacZ marker gene
Assay type: cell-based, retrovirus

OC[C@H]1O[C@@H]2O[C@H]3[C@H](O)[C@@H](O)[C@@H](O[C@H]4[C@H](O)[C@@H](O)[C@@H](O[C@H]5[C@H](O)[C@@H](O)[C@@H](O[C@H]6[C@H](O)[C@@H](O)[C@@H](O[C@H]7[C@H](O)[C@@H](O)[C@@H](O[C@H]8[C@H](O)[C@@H](O)[C@@H](O[C@H]1[C@H](O)[C@H]2O)O[C@@H]8CO)O[C@@H]7CO)O[C@@H]6CO)O[C@@H]5CO)O[C@@H]4CO)O[C@@H]3CO [β-cyclodextrin]
enhancement of the retroviral inactivation, additional factor: 10
